The values below are quoted from earlier work in US7399616B2, “Enzymatic synthesis of Nα-acyl-L-arginine esters” (Laboratorios Miret, S.A., priority 2002, dated 2008).

One series has as its system microorganisms. The conditions noted are these: acts over external and cytoplasmatic membrane and into cytoplasmatic medium; depends on kind of microorganism and exposure time.
For series [1] the following is noted: rats; metabolised into naturally-occurring amino acids and lauric acid, excreted as carbon dioxide and urea.
For series [2] the following is noted: animals and humans.

As for `CCCCCCCCCCCC(=O)N[C@@H](CCCN=C(N)N)C(=O)OCC.Cl` [LAE, ethyl ester of the laurylamide of the L-arginine monohydrochloride], in the series with microorganisms, the “action on microorganisms (proliferation)” value is on record as “preventing their proliferation”. Further, the absorption and metabolism entry in series [1] is “fast absorption and metabolism”. Moreover, the toxicity entry in series [2] was “completely harmless”.
